Assay: Solubility test: 20 mg sample in 10 g solvent, evaluated visually
Type: physicochemical
Settings: 20 mg in 10 g solvent (0.2 mass %), room temperature / 25° C., visual
Experimental: For evaluating the applicability thereof to a wet process, the compound to be analyzed was tested in a dissolution test in various solvents. As a comparative case, anthracene was tested for the dissolution test.
Concretely, 20 mg of the sample was weighed, and the solubility thereof (0.2 mass %) in 10 g of a solvent at room temperature was visually evaluated.
In Table 1, A means soluble, and B means insoluble. The standard of “soluble” was set as the case where the compound dissolved in an amount of 0.2% by mass or more at a solvent temperature of 25° C.

c1ccc2cc3ccccc3cc2c1 [Comparative Example 3, Anthracene]
Solubility Test Cyclohexane (cyclohexane): B (B means insoluble)
Solubility Test Hexane (hexane): B (B means insoluble)
